Tested on: LG0703-F948-PDC spheroids with HUVEC/MSC, viability
Assay: Anticancer human tumor LG0703-F948-PDC patient-derived lung adenocarcinoma cell line growth inhibition [IpAb]
Conditions: for IC50: curve of first compound; for viability, T/C: stronger effect = lower value; active = viability on the fitted dose curve at most 10% of control; inactive = the rest
Procedure, shortened: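 Multi-cell spheroids of 60% tumour cells, 25% HUVEC and 15% MSC in ultra-low-attachment U-bottom wells, treated with agents combined with ipatasertib or abemaciclib. Half-log ranges top out near clinical Cmax, or 10 microM when Cmax is unknown.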

[1] = second compound 0.01 µM, first compound 0.0316 µM
[2] = second compound 0.01 µM, first compound 0.1 µM
[3] = second compound 0.0316 µM, first compound 0.0316 µM
[4] = second compound 0.0316 µM, first compound 0.1 µM
[5] = second compound 0.1 µM, first compound 0.0316 µM
[6] = second compound 0.1 µM, first compound 0.1 µM
[7] = second compound 0.316 µM, first compound 0.0316 µM
[8] = second compound 0.316 µM, first compound 0.1 µM
[9] = second compound 1 µM, first compound 0.0316 µM
[10] = second compound 1 µM, first compound 0.1 µM
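Also: spheroids exposed to compounds for seven days before readout.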
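For viability, T/C in this document: T/C percent relative to DMSO vehicle wells set as 100% viability.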

CC(C)n1nc(-c2ccc3oc(N)nc3c2)c2c(N)ncnc21 + CCN1CCN(Cc2ccc(Nc3ncc(F)c(-c4cc(F)c5nc(C)n(C(C)C)c5c4)n3)nc2)CC1
4.23 nM: IC50 (second compound 0.1 µM)
6.16 nM: IC50 (second compound 0.316 µM)
3.3 nM: IC50 (second compound 0.0316 µM)
3.98 nM: IC50 (second compound 1 µM)
4.38 nM: IC50 (second compound 0.01 µM)
inactive: viability, T/C (second compound 0.01 µM, first compound 0.000316 µM) 112% | viability, T/C (second compound 0.01 µM, first compound 0.001 µM) 78.6% | viability, T/C (second compound 0.01 µM, first compound 0.00316 µM) 56.5% | viability, T/C (second compound 0.01 µM, first compound 0.01 µM) 38% | viability, T/C [1] 24% | viability, T/C [2] 21.4% | viability, T/C (second compound 0.0316 µM, first compound 0.000316 µM) 87.9% | viability, T/C (second compound 0.0316 µM, first compound 0.001 µM) 70.1% | viability, T/C (second compound 0.0316 µM, first compound 0.00316 µM) 52% | viability, T/C (second compound 0.0316 µM, first compound 0.01 µM) 33.9% | viability, T/C [3] 22.3% | viability, T/C [4] 21.8% | viability, T/C (second compound 0.1 µM, first compound 0.000316 µM) 87.4% | viability, T/C (second compound 0.1 µM, first compound 0.001 µM) 71.2% | viability, T/C (second compound 0.1 µM, first compound 0.00316 µM) 52.1% | viability, T/C (second compound 0.1 µM, first compound 0.01 µM) 40.5% | viability, T/C [5] 29.3% | viability, T/C [6] 22.3% | viability, T/C (second compound 0.316 µM, first compound 0.000316 µM) 82.5% | viability, T/C (second compound 0.316 µM, first compound 0.001 µM) 77.1% | viability, T/C (second compound 0.316 µM, first compound 0.00316 µM) 58.4% | viability, T/C (second compound 0.316 µM, first compound 0.01 µM) 43% | viability, T/C [7] 32% | viability, T/C [8] 24.8% | viability, T/C (second compound 1 µM, first compound 0.000316 µM) 90% | viability, T/C (second compound 1 µM, first compound 0.001 µM) 65% | viability, T/C (second compound 1 µM, first compound 0.00316 µM) 48.1% | viability, T/C (second compound 1 µM, first compound 0.01 µM) 46.6% | viability, T/C [9] 44.1% | viability, T/C [10] 28.8%

CC1(C)CCC(CN2CCN(c3ccc(C(=O)NS(=O)(=O)c4ccc(NCC5CCOCC5)c([N+](=O)[O-])c4)c(Oc4cnc5[nH]ccc5c4)c3)CC2)=C(c2ccc(Cl)cc2)C1 + CCN1CCN(Cc2ccc(Nc3ncc(F)c(-c4cc(F)c5nc(C)n(C(C)C)c5c4)n3)nc2)CC1
4920 nM: IC50 (second compound 0.1 µM)
inactive: viability, T/C [1] 102% | viability, T/C [2] 100% | viability, T/C (second compound 0.01 µM, first compound 0.316 µM) 100% | viability, T/C (second compound 0.01 µM, first compound 1 µM) 87.2% | viability, T/C (second compound 0.01 µM, first compound 3.16 µM) 77.9% | viability, T/C (second compound 0.01 µM, first compound 10 µM) 13.5% | viability, T/C [3] 81.8% | viability, T/C [4] 102% | viability, T/C (second compound 0.0316 µM, first compound 0.316 µM) 84.3% | viability, T/C (second compound 0.0316 µM, first compound 1 µM) 91% | viability, T/C (second compound 0.0316 µM, first compound 3.16 µM) 75.3% | viability, T/C (second compound 0.0316 µM, first compound 10 µM) 11.4% | viability, T/C [5] 92.4% | viability, T/C [6] 86.8% | viability, T/C (second compound 0.1 µM, first compound 0.316 µM) 72.3% | viability, T/C (second compound 0.1 µM, first compound 1 µM) 88.5% | viability, T/C (second compound 0.1 µM, first compound 3.16 µM) 73.8% | viability, T/C (second compound 0.1 µM, first compound 10 µM) 11.3% | viability, T/C [7] 87.9% | viability, T/C [8] 88.8% | viability, T/C (second compound 0.316 µM, first compound 0.316 µM) 79.9% | viability, T/C (second compound 0.316 µM, first compound 1 µM) 79% | viability, T/C (second compound 0.316 µM, first compound 3.16 µM) 62.6% | viability, T/C (second compound 0.316 µM, first compound 10 µM) 11.1% | viability, T/C [9] 85% | viability, T/C [10] 79% | viability, T/C (second compound 1 µM, first compound 0.316 µM) 46.9% | viability, T/C (second compound 1 µM, first compound 1 µM) 65.8% | viability, T/C (second compound 1 µM, first compound 3.16 µM) 36.9%
4120 nM: IC50 (second compound 0.316 µM)
active: viability, T/C (second compound 1 µM, first compound 10 µM) 2.51%
5000 nM: IC50 (second compound 0.0316 µM)
1290 nM: IC50 (second compound 1 µM)
5080 nM: IC50 (second compound 0.01 µM)

From PubChem BioAssay AID2060330 (Molecular Pharmacology Branch, DTP, NCI, 2025)
